Measured values from PubChem BioAssay AID1963974 (Molecular Pharmacology Branch, DTP, NCI, 2024).

Test system: 648629-189-R-J1-PDC spheroids with HUVEC/MSC, viability
Assay: Anticancer human tumor 648629-189-R-J1-PDC patient-derived bladder carcinoma cell line growth inhibition [PI3K]
Conditions: for IC50: curve of first compound; for viability, T/C: stronger effect = lower value
Outline: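 Viability of mixed-cell spheroids was determined after exposure to pairwise combinations, one partner being inavolisib, alpelisib, duvelisib or copanlisib. Highest tested concentration matched clinical Cmax where known and 10 microM where not, descending in half-log steps.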

[1] = second compound 0.00316 µM, first compound 0.00316 µM
[2] = second compound 0.00316 µM, first compound 0.01 µM
[3] = second compound 0.00316 µM, first compound 0.0316 µM
[4] = second compound 0.00316 µM, first compound 0.1 µM
[5] = second compound 0.01 µM, first compound 0.00316 µM
[6] = second compound 0.01 µM, first compound 0.01 µM
[7] = second compound 0.01 µM, first compound 0.0316 µM
[8] = second compound 0.01 µM, first compound 0.1 µM
[9] = second compound 0.0316 µM, first compound 0.00316 µM
[10] = second compound 0.0316 µM, first compound 0.01 µM
[11] = second compound 0.0316 µM, first compound 0.0316 µM
[12] = second compound 0.0316 µM, first compound 0.1 µM
[13] = second compound 0.1 µM, first compound 0.00316 µM
[14] = second compound 0.1 µM, first compound 0.01 µM
[15] = second compound 0.1 µM, first compound 0.0316 µM
[16] = second compound 0.1 µM, first compound 0.1 µM
[17] = second compound 0.316 µM, first compound 0.00316 µM
[18] = second compound 0.316 µM, first compound 0.01 µM
[19] = second compound 0.316 µM, first compound 0.0316 µM
[20] = second compound 0.316 µM, first compound 0.1 µM
[21] = second compound 1 µM, first compound 0.00316 µM
[22] = second compound 1 µM, first compound 0.01 µM
[23] = second compound 1 µM, first compound 0.0316 µM
[24] = second compound 1 µM, first compound 0.1 µM
[25] = second compound 0.0316 µM, first compound 0.316 µM
[26] = second compound 0.0316 µM, first compound 1 µM
[27] = second compound 0.1 µM, first compound 0.316 µM
[28] = second compound 0.1 µM, first compound 1 µM
[29] = second compound 0.316 µM, first compound 0.316 µM
[30] = second compound 0.316 µM, first compound 1 µM
[31] = second compound 1 µM, first compound 0.316 µM
[32] = second compound 1 µM, first compound 1 µM
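Further: spheroids exposed to agents for seven days before reading.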
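Wherever viability, T/C is given: percent of vehicle control luminescence where 100% = DMSO treated spheroids.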

CC(C)n1nc(-c2ccc3oc(N)nc3c2)c2c(N)ncnc21 + COc1c(OCCCN2CCOCC2)ccc2c3n(c(=NC(=O)c4cnc(N)nc4)nc12)CCN3
IC50 (second compound 0.00316 µM): 57.4 nM
IC50 (second compound 0.01 µM): 46.4 nM
IC50 (second compound 0.0316 µM): 35.4 nM
IC50 (second compound 0.1 µM): 14.6 nM
IC50 (second compound 0.316 µM): < 0.316 nM
IC50 (second compound 1 µM): < 0.316 nM
viability, T/C (second compound 0.00316 µM, first compound 0.000316 µM): 90.5%
viability, T/C (second compound 0.00316 µM, first compound 0.001 µM): 79.5%
viability, T/C [1]: 95.2%
viability, T/C [2]: 77.8%
viability, T/C [3]: 72.7%
viability, T/C [4]: 30.3%
viability, T/C (second compound 0.01 µM, first compound 0.000316 µM): 86.2%
viability, T/C (second compound 0.01 µM, first compound 0.001 µM): 89.9%
viability, T/C [5]: 90.4%
viability, T/C [6]: 79.5%
viability, T/C [7]: 62.4%
viability, T/C [8]: 25.9%
viability, T/C (second compound 0.0316 µM, first compound 0.000316 µM): 79.1%
viability, T/C (second compound 0.0316 µM, first compound 0.001 µM): 86.4%
viability, T/C [9]: 86%
viability, T/C [10]: 68.3%
viability, T/C [11]: 54.5%
viability, T/C [12]: 21.7%
viability, T/C (second compound 0.1 µM, first compound 0.000316 µM): 63.1%
viability, T/C (second compound 0.1 µM, first compound 0.001 µM): 56.8%
viability, T/C [13]: 61.1%
viability, T/C [14]: 58.3%
viability, T/C [15]: 32.8%
viability, T/C [16]: 13.3%
viability, T/C (second compound 0.316 µM, first compound 0.000316 µM): 18.5%
viability, T/C (second compound 0.316 µM, first compound 0.001 µM): 21.5%
viability, T/C [17]: 18.2%
viability, T/C [18]: 15.8%
viability, T/C [19]: 12.2%
viability, T/C [20]: 5.55%
viability, T/C (second compound 1 µM, first compound 0.000316 µM): 3.09%
viability, T/C (second compound 1 µM, first compound 0.001 µM): 3%
viability, T/C [21]: 2.48%
viability, T/C [22]: 3.58%
viability, T/C [23]: 2.39%
viability, T/C [24]: 0.95%

CCN1CCN(Cc2ccc(Nc3ncc(F)c(-c4cc(F)c5nc(C)n(C(C)C)c5c4)n3)nc2)CC1 + COc1c(OCCCN2CCOCC2)ccc2c3n(c(=NC(=O)c4cnc(N)nc4)nc12)CCN3
IC50 (second compound 0.00316 µM): > 1000 nM
IC50 (second compound 0.01 µM): > 1000 nM
IC50 (second compound 0.0316 µM): > 1000 nM
IC50 (second compound 0.1 µM): > 1000 nM
IC50 (second compound 0.316 µM): < 3.16 nM
IC50 (second compound 1 µM): < 3.16 nM
viability, T/C [1]: 91%
viability, T/C [2]: 94.8%
viability, T/C [3]: 110%
viability, T/C [4]: 101%
viability, T/C (second compound 0.00316 µM, first compound 0.316 µM): 115%
viability, T/C (second compound 0.00316 µM, first compound 1 µM): 104%
viability, T/C [5]: 102%
viability, T/C [6]: 87.8%
viability, T/C [7]: 98.9%
viability, T/C [8]: 96.5%
viability, T/C (second compound 0.01 µM, first compound 0.316 µM): 103%
viability, T/C (second compound 0.01 µM, first compound 1 µM): 106%
viability, T/C [9]: 84.9%
viability, T/C [10]: 79%
viability, T/C [11]: 91.3%
viability, T/C [12]: 88.5%
viability, T/C [25]: 87.9%
viability, T/C [26]: 91%
viability, T/C [13]: 58.6%
viability, T/C [14]: 62.4%
viability, T/C [15]: 56%
viability, T/C [16]: 58.5%
viability, T/C [27]: 66.6%
viability, T/C [28]: 66.1%
viability, T/C [17]: 21.4%
viability, T/C [18]: 18.9%
viability, T/C [19]: 18.8%
viability, T/C [20]: 19.7%
viability, T/C [29]: 24.1%
viability, T/C [30]: 21.7%
viability, T/C [21]: 3.05%
viability, T/C [22]: 2.93%
viability, T/C [23]: 2.76%
viability, T/C [24]: 4.51%
viability, T/C [31]: 6.23%
viability, T/C [32]: 9.27%

Cn1nccc1Nc1nccc(-c2ccn(C(CO)c3ccc(Cl)c(F)c3)c(=O)c2)n1 (stereo unspecified) + Cc1nc(NC(=O)N2CCCC2C(N)=O)sc1-c1ccnc(C(C)(C)C(F)(F)F)c1
IC50 (second compound 0.0316 µM): > 10000 nM
IC50 (second compound 0.1 µM): > 10000 nM
IC50 (second compound 0.316 µM): > 10000 nM
IC50 (second compound 1 µM): > 10000 nM
IC50 (second compound 3.16 µM): > 10000 nM
IC50 (second compound 10 µM): < 31.6 nM
viability, T/C [11]: 120%
viability, T/C [12]: 96.2%
viability, T/C [25]: 112%
viability, T/C [26]: 112%
viability, T/C (second compound 0.0316 µM, first compound 3.16 µM): 111%
viability, T/C (second compound 0.0316 µM, first compound 10 µM): 74.7%
viability, T/C [15]: 93.5%
viability, T/C [16]: 105%
viability, T/C [27]: 108%
viability, T/C [28]: 104%
viability, T/C (second compound 0.1 µM, first compound 3.16 µM): 96.1%
viability, T/C (second compound 0.1 µM, first compound 10 µM): 79.2%
viability, T/C [19]: 94.3%
viability, T/C [20]: 97.6%
viability, T/C [29]: 98.1%
viability, T/C [30]: 102%
viability, T/C (second compound 0.316 µM, first compound 3.16 µM): 92.8%
viability, T/C (second compound 0.316 µM, first compound 10 µM): 75.4%
viability, T/C [23]: 83.3%
viability, T/C [24]: 79.4%
viability, T/C [31]: 72.8%
viability, T/C [32]: 85.7%
viability, T/C (second compound 1 µM, first compound 3.16 µM): 82.2%
viability, T/C (second compound 1 µM, first compound 10 µM): 70.6%
viability, T/C (second compound 3.16 µM, first compound 0.0316 µM): 64.4%
viability, T/C (second compound 3.16 µM, first compound 0.1 µM): 63.1%
viability, T/C (second compound 3.16 µM, first compound 0.316 µM): 56.8%
viability, T/C (second compound 3.16 µM, first compound 1 µM): 72.1%
viability, T/C (second compound 3.16 µM, first compound 3.16 µM): 67.1%
viability, T/C (second compound 3.16 µM, first compound 10 µM): 67.1%
viability, T/C (second compound 10 µM, first compound 0.0316 µM): 40.2%
viability, T/C (second compound 10 µM, first compound 0.1 µM): 39.5%
viability, T/C (second compound 10 µM, first compound 0.316 µM): 41.5%
viability, T/C (second compound 10 µM, first compound 1 µM): 45.5%
viability, T/C (second compound 10 µM, first compound 3.16 µM): 54.9%
viability, T/C (second compound 10 µM, first compound 10 µM): 55.1%
